In brackets after ≈: the same amount, converted by molar mass.

The subject of the experiment is Clostridium difficile (Isolate ID ATCC 9689). Put plainly: Bacterial Assay: Determination of Antibacterial Activity (MIC, broth microdilution or agar dilution). It counts as cell-based. The conditions noted are these: Clostridioides difficile, ATCC9689, 48 h, read-out: C. difficile MIC Activity Range. The protocol: Bacterial Assay: Determination of Antibacterial Activity Compounds of the invention were tested for antimicrobial activity by susceptibility testing in liquid or on solid media. Minimum inhibitory concentrations (MICs) for compounds against each strain were determined by the broth microdilution or agar dilution method according to the guidelines of the Clinical Laboratories and Standards Institute, formerly the National Committee for Clinical Laboratory Standards (Clinical Laboratories and Standards Institute. Methods for Dilution Antimicrobial Susceptibility Tests for Bacteria That Grow Anaerobically; Approved Standard-Seventh Edition. Document M11-A7, CLSI, Wayne, Pa., 2007, Clinical Laboratories and Standards Institute). Briefly MICs were determined by visible inspection after 48 hours of growth in the presence of compounds, cultures were grown at 37° C. in anaerobic gas packs using reinforced clostridial medium supplemented with 0.1% defribrinated horse blood. The bacterial strains tested include C. difficile (Clostridium difficile (Isolate ID ATCC 9689)) (Table 2) and two drug resistant clinical isolates (Clostridium difficile (Isolate ID BI-9) and Clostridium difficile (Isolate ID 027-01) (Table 3).
MICs were determined to be within the activity ranges “A” activity≦1.01 μg/mL; “B” activity>1.0 μg/mL-4.0 μg/mL; “C” activity>4.0 μg/mL-16 μg/mL
Consider `NC(=O)c1c(F)ccc(OCc2nc(-c3ccc(F)cc3)cs2)c1F` [Compound 15, 2,6-difluoro-3-{[4-(4-fluorophenyl)-1,3-thiazol-2-yl]methoxy}benzamide], for which the MIC lay within 1 to 4 µg/mL (≈ 2.74 to 11 µM).
In the case of `NC(=O)c1c(F)ccc(OC(CO)c2nc(-c3ccc(OC(F)(F)F)cc3)c(Br)o2)c1F` (stereo not drawn) [Compound 52, 3-(1-{5-bromo-4-[4-(trifluoromethoxy)phenyl]-1,3-oxazol-2-yl}-2-hydroxyethoxy)-2,6-difluorobenzamide], the MIC is less than 1.01 µg/mL.
For `NC(=O)c1c(F)ccc(OCCCOc2ccc(C(F)(F)F)cc2)c1F` [Compound 125, 2,6-difluoro-3-{3-[4-(trifluoromethyl)phenoxy]propoxy}benzamide], the MIC fell in the range of 1 to 4 µg/mL (≈ 2.66 to 10.7 µM).
Take `NC(=O)c1c(F)ccc(NCCCCOc2ccc(C(F)(F)F)cn2)c1F` [Compound 179, 2,6-difluoro-3-[(4-{[5-(trifluoromethyl)pyridin-2-yl]oxy}butyl)amino]benzamide]: the MIC fell in the range of 4 to 16 µg/mL (≈ 10.3 to 41.1 µM).
With `CCCCCC/C=C/COc1ccc(F)c(C(N)=O)c1F` [Compound 3, 2,6-difluoro-3-[(2E)-non-2-en-1-yloxy]benzamide], the MIC is less than 1.01 µg/mL.
As for `NC(=O)c1c(F)ccc(NCc2nc(-c3ccc(C(F)(F)F)cc3)cs2)c1F` [Compound 122, 2,6-difluoro-3-[({4-[4-(trifluoromethyl)phenyl]-1,3-thiazol-2-yl}methyl)amino]benzamide], the figure is less than 1.01 µg/mL.
As for `NC(=O)c1c(F)ccc(OC(CNC(=O)OCc2ccccc2)c2nc(-c3ccc(C(F)(F)F)cc3)c(Br)o2)c1F` (racemic) [Compound 93, benzyl [2-{5-bromo-4-[4-(trifluoromethyl)phenyl]-1,3-oxazol-2-yl}-2-(3-carbamoyl-2,4-difluorophenoxy)ethyl]carbamate], the figure is 1 to 4 µg/mL (≈ 1.56 to 6.25 µM).
Take `NC(=O)c1c(F)ccc(OCCCCSc2ccc(Cl)cc2)c1F` [Compound 153, 3-{4-[(4-chlorophenyl)thio]butoxy}-2,6-difluorobenzamide]: the MIC was less than 1.01 µg/mL.
As for `NC(=O)c1c(F)ccc(OC(COC(=O)Cn2cccc2)c2nc(-c3ccc(C(F)(F)F)cc3)c(Br)o2)c1F` (stereo not drawn) [Compound 40, 2-{5-bromo-4-[4-(trifluoromethyl)phenyl]-1,3-oxazol-2-yl}-2-(3-carbamoyl-2,4-difluorophenoxy)ethyl 1H-pyrrol-l-ylacetate], the MIC was less than 1.01 µg/mL.
As for `NC(=O)c1c(F)ccc(O[C@@H](CO)c2nc(-c3ccc(C(F)(F)F)cc3)c(Br)o2)c1F` [Compound 41, 3-[(1S)-1-{5-bromo-4-[4-(trifluoromethyl)phenyl]-1,3-oxazol-2-yl}-2-hydroxyethoxy]-2,6-difluorobenzamide], the figure is 1 to 4 µg/mL (≈ 1.97 to 7.89 µM).
As for `Cn1ccc(CNC(=O)OCC(Oc2ccc(F)c(C(N)=O)c2F)c2nc(-c3ccc(C(F)(F)F)cc3)c(Br)o2)n1` (stereo not drawn) [Compound 72, 2-{5-bromo-4-[4-(trifluoromethyl)phenyl]-1,3-oxazol-2-yl}-2-(3-carbamoyl-2,4-difluorophenoxy)ethyl [(1-methyl-1H-pyrazol-3-yl)methyl]carbamate], the MIC is less than 1.01 µg/mL.
As to `N/C(=N\O)c1c(F)ccc(OCCCCOc2ccc(C(F)(F)F)cn2)c1F` [Compound 178, 2,6-difluoro-N′-hydroxy-3-(4-{[5-(trifluoromethyl)pyridin-2-yl]oxy}butoxy)benzenecarboximidamide], the MIC was in the range of 4 to 16 µg/mL (≈ 9.87 to 39.5 µM).
With `Cc1ccc(-c2nc(CCOc3ccc(F)c(C(N)=O)c3F)c(C)o2)cc1` [Compound 18, 2,6-difluoro-3-{2-[5-methyl-2-(4-methylphenyl)-1,3-oxazol-4-yl]ethoxy}benzamide], the MIC was 1 to 4 µg/mL (≈ 2.69 to 10.7 µM).
As for `CC/C=C\CCCCCOc1ccc(F)c(C(N)=O)c1F` [Compound 6, 2,6-difluoro-3-[(6Z)-non-6-en-1-yloxy]benzamide], the figure is less than 1.01 µg/mL; as for `NC(=O)c1c(F)ccc(OC(CO)c2nc(-c3ccc(Cl)cc3)cs2)c1F` (stereo not drawn) [Compound 25, 3-{1-[4-(4-chlorophenyl)-1,3-thiazol-2-yl]-2-hydroxyethoxy}-2,6-difluorobenzamide], 4 to 16 µg/mL (≈ 9.74 to 38.9 µM).
